According to patent publication US4447445A (priority 1983, dated 1984):
In brackets after ≈: the same amount, converted by molar mass. Several values for one entry are separate records, joined by “and”; a condition that tells them apart may be missing. Equal values may be shown once. Entries after “also recorded” stand apart in the source; their conditions may differ.

Assays:
β-bungarotoxin = β-bungarotoxin (Bungarus multicinctus, UniProt P00617)
[1] = molecular target: phospholipase A2 from bee venom (Apis mellifera, UniProt P00630); type: biochemical
Sequence of phospholipase A2 from bee venom (P00630 34-167 limits assumed): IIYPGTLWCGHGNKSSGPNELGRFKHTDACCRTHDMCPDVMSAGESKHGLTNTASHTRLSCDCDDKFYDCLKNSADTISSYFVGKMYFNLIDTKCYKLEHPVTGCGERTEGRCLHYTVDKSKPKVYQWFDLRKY

[2] = tested on: PMA induced inflammation of mouse ears; experiment: PMA Mouse Ear Anti-Inflammatory Assay; type: in vivo; settings: for % Inhibition of Edema Alone: Manoalide 0.04 mg/ear, Hydrocortisone 0.009 mg/ear, Indomethacin 0.09 mg/ear
Protocol: (§1) Test compound and phorbol myristate acetate (PMA) or arachidonic acid (ARA) are topically applied simultaneously to the left ears of mice. Three hours 20 minutes (or one hour for ARA) after application, the mouse is sacrificed, left and right ears removed and standard sized bores taken. Edema (inflammation) is measured as the difference in weight between left and right ears [Van Arman, C. G., Clin. Pharmacol. Ther. 16, 900-904 (1974)].

isolated diaphragm = experiment: Rat Phrenic Nerve - Hemidiaphragm; settings: for effects on skeletal muscle: preliminary assays
Protocol: Compound is tested for its ability to inhibit or facilitate the twitch of the isolated diaphragm in response to the electrical stimulation of the phrenic nerve [Bulbring, E., Br. J. Pharmac. Chemother. 1, 38 (1946)].

[3] = tested on: eggs (from Lytechinus pictus); experiment: Fertilized Sea Urchin Egg Inhibition of Cleavage Assay; type: cell-based; settings: for inhibition of cell division: preliminary assays
Protocol: Test compound is added to a slurry of eggs (from Lytechinus pictus) within five minutes following fertilization and incubated until the completion of first division in control slurry, approximately 90 minutes. Inhibition is measured as the percent of undivided eggs in the slurry at the end of incubation [Hinegardner, R., In The Sea Urchin Embryo, ed. C. Czihar (Springer-Verlag, Berlin, 1974)].

[4] = tested on: spontaneous beating isolated guinea pig auricles; experiment: Guinea Pig Auricles; settings: for effects on cardiac muscle: preliminary assays
Protocol: Test compound is administered to the spontaneous beating isolated guinea pig auricles and observed for its ability to alter either the rate or the force of contraction or to antagonize the effects of acetylcholine [modified from J. Physiol. 61, 547 (1926); Heffter's Hanb. Exp. Pharmak. 4, 185 (1937)].

mice [5] = experiment: Analgesia - Haffner Technique (tail clip); type: in vivo, mouse; settings: high doses
Protocol: Analgesia is measured as the lack of response to a pinch clamp applied to the tail of a mouse 15 to 30 minutes following subcutaneous injection of the test compound [Bianchi, G. and G. Franeschini, Brit. J. Pharmac. 9, 280 (1954)].

[6] = tested on: ARA induced inflammation of mouse ears; experiment: Arachidonic Acid Mouse Ear Assay; settings: in vivo
Protocol: as §1

isolated rat uterus = experiment: Rat Uterus (Prostaglandin Assay); settings: against PGE2, PGE1 and PGF2
mouse ears = experiment: Histology of mouse ears from the anti-inflammatory assay; settings: in vivo
From the text: Mouse ears from the anti-inflammatory assay are fixed in Karnofsky's fixative and osmium tetroxide and then embedded in araldite epoxy resin for sectioning for light and electron microscopy.

[7] = tested on: isolated section of small intestine; experiment: Guinea Pig Ileum; settings: initial screening
acetylcholinesterase = molecular target: T1, acetylcholinesterase (Rattus norvegicus, UniProt P37136); experiment: Acetylcholinesterase Assay; type: biochemical
T1 construct: rat brain extract (source of acetylcholinesterase); from tissue; host or cells: rat brain extract
T1 sequence (P37136 32-614): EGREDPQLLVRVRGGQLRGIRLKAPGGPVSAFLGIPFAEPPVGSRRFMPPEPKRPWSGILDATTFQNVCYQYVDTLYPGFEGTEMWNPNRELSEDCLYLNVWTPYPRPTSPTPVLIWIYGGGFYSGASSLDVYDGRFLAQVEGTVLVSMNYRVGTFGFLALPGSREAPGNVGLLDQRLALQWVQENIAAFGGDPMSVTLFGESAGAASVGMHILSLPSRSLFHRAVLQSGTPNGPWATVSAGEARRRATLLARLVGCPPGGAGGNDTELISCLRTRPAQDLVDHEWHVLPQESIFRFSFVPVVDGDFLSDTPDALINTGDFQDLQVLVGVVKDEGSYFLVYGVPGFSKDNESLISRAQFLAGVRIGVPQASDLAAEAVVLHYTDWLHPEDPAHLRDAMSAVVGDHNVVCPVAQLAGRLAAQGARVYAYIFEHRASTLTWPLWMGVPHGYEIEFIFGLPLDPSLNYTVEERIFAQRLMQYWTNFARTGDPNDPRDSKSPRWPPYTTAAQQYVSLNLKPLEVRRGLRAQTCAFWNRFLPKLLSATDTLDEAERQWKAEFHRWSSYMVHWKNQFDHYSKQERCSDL
Protocol: Test compound is incubated with rat brain extract (source of acetylcholinesterase), acetylthiocholine and dithiobis (2-nitrobenzoic acid). Inhibition of acetylcholinesterase activity is measured spectrophotometrically.

[8] = tested on: tumors formed on mouse ears; experiment: Tumor Promotion (DMBA/PMA mouse ear); type: in vivo; settings: PMA as promoter with initiator DMBA
From the text: An initiating agent, 7,12-dimethylbenzanthracene (DMBA), is applied topically to the ears of mice. Beginning one month later, a tumor promoting agent, phorbol myristate acetate (PMA), and the test compound are applied simultaneously to the ears twice per week for four weeks, then once per week for two weeks. Ears are observed for formation of tumors at the times of application and one week following completion of applications.

[9] = tested on: oxazolone induced inflammation of mouse ears; experiment: Oxazolone-Induced Sensitization inflammation; type: in vivo; settings: for EAR WEIGHT (MGS): with oxazolone
Protocol: Mice are sensitized by the application of oxazolone to the abdominal area. One week later, test compound and oxazolone are topically applied to the ears of these mice. Six hours after application, the mice are sacrificed, the ears removed and standard sized bores taken and weighed. Edema (inflammation) is measured as the difference in weight between control and treated ears. Without previous sensitization exposure, oxazolone has no inflammatory effect on mouse ears.

mice [10] = experiment: Acute Toxicity (with analgesia screening); type: in vivo, mouse; settings: initial screening
Protocol: Test compound is injected subcutaneously into mice which are observed for three days for both lethality and any unusual behavior or appearance. This assay may be performed in conjunction with analgesia assays.

[11] = tested on: PMA induced inflammation of mouse ears; experiment: PMA Mouse Ear Anti-Inflammatory Assay; settings: in vivo
[12] = tested on: electrically driven section of isolated small intestine; experiment: Electrically Stimulated Guinea Pig Ileum
[13] = mouse, in vivo, listed as manoalide

Sequence of β-bungarotoxin (P00617 whole entry, looked up): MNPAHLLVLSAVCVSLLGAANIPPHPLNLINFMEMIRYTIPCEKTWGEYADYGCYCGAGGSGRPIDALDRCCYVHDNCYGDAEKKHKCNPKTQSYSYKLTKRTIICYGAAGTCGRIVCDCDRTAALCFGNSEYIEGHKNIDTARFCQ

For CCN(CC)CCCC(C)Nc1c2ccc(Cl)cc2nc2ccc(OC)cc12 (centres unmarked) [mepacrine], the “Mean TI50 ± S.E.” value (β-bungarotoxin) was 43.50 ± 2.50 and 49.00 ± 4.00 and 46.60 ± 7.54 and 35.66 ± 4.67 and the “effect on enzyme activity (hydrolysis of phosphatidylcholine)” value [1] was “ineffective”.

In the case of CC1=C(CC/C(C)=C/CCC(C=O)=CCC(O)C2=CC(=O)OC2O)C(C)(C)CCC1 (centres unmarked) [seco-manoalide], the “PMA Mouse Ear anti-inflammatory activity (remark)” value ([2]; mouse, in vivo) was “anti-inflammatoryactivity”, the “anti-inflammatory potency relative to comparators” value ([2]; mouse, in vivo) was “nearly equivalent in potency to that of manoalide” and the “effects on skeletal muscle” value (isolated diaphragm) was “no significant activity”. For the same compound, the “inhibition of cell division” value [3] was “no significant activity” and the “effects on cardiac muscle” value [4] was “no significant activity”.

For CC1=C(CC/C(C)=C/CCC2=CCC(C3=CC(=O)OC3O)OC2O)C(C)(C)CCC1 (centres unmarked) [Manoalide], the “Analgesia (Haffner Tail-Clip), mechanically induced pain” value (mice [5]) was “Inactive”, the “Analgesia (Haffner Tail-Clip), mechanically induced pain” value (mice [5]; listed as manoalide) was “did not significantly affect mechanically induced pain” and the “% Inhibition of Edema Alone” value [2] was 28.24 ± 6.58%. The “PMA - Mouse Ear Competition for binding” value ([2]; mouse, in vivo) was “Does not compete”, the “PMA - Mouse Ear Potentiation (with Hydrocortisone and Indomethacin)” value ([2]; mouse, in vivo) was “Active” and the “PMA Mouse Ear anti-inflammatory activity (remark)” value ([2]; mouse, in vivo) was “Active; also recorded: blocks this inflammation”. The “anti-inflammatory potency relative to comparators” value ([2]; mouse, in vivo) was “greater than that of indomethacin; also recorded: less potent than hydrocortisone”, the “anti-inflammatory potency relative to comparators” value [2, 13] was “more potent than indomethacin and less potent than hydrocortisone” and the “ED50 (PMA induced ear inflammation)” value ([2]; topical, will vary with PMA dose) was ~40 μg/ear. The “reduction of inflammation due to PMA induction” value ([2]; total dose of 10 μg applied to the ear) was “marked reduction of inflammation”, the “effect on ARA induced ear inflammation” value [6] was “Inactive” and the “effect on ARA induced ear inflammation” value ([6]; listed as manoalide) was “Neither manoalide nor hydrocortisone affected the ARA induced inflammation”. The “Rat Uterus (Prostaglandin Assay) activity” value (isolated rat uterus) was “Inactive”, the “Rat Uterus (Prostaglandin Assay) activity” value (isolated rat uterus; listed as manoalide) was “inactive against these agents” and the “contracture in the rat hemidiaphragm preparation” value (isolated diaphragm) was “modest contracture”. The “effect on the directly stimulated twitch” value (isolated diaphragm) was “mildly inhibiting the directly stimulated twitch”, the “Rat Phrenic Nerve - Hemidiaphragm (remark)” value (isolated diaphragm; initial screening) was “Active” and the “inactivation of β-Bungarotoxin neurotoxic action” value (β-bungarotoxin) was “inactivated the irreversible neurotoxic action of β-bungarotoxin; also recorded: prevents the paralytic action of β-bungarotoxin”. The “Histology of PMA treated ears” value (mouse ears) was “Decreased lymphocyte”, the “Histology of PMA treated ears” value (mouse ears; listed as manoalide) was “qualitatively produced similar effects to both hydrocortisone and indomethacin” and the IC50 ([3]; Lytechinus pictus, 1.5 h, read-out: Fertilized Sea Urchin Egg ED50) was 1 µg/mL (≈ 2.4 µM). The “Fertilized Sea Urchin Egg Inhibition of Cleavage (remark)” value ([3]; initial screening) was “Active”, the “Acetylcholine Antagonism in Guinea Pig Auricles” value [4] was “Inactive” and the “Guinea Pig Auricles (remark)” value ([4]; initial screening) was “Active”. For the same compound, the “Guinea Pig Ileum (remark)” value [7] was “Active”, the “Acetylcholinesterase (remark)” value (acetylcholinesterase) was “Inactive” and the “incidence of tumors formed on mouse ears” value [8] was “significantly decreases the incidence of tumors”. The “EAR WEIGHT (MGS)” value ([9]; dose 50 μg/ear) was 17.5 ± 3.7 MGS, the “EAR WEIGHT (MGS)” value ([9]; dose 100 μg/ear) was 13.1 ± 1.4 MGS and the “effect on oxazolone induced inflammation” value [9, 13] was “blocks the oxazolone induced inflammation”. The “Inhibition of purified phosplolipase A2 (remark)” value [1] was “Active”, the “effect on enzyme activity (hydrolysis of phosphatidylcholine)” value [1] was “concentration dependent decrease in enzyme activity; also recorded: potent inhibitor of the hydrolysis of phosphatidylcholine” and the “type of inhibition of phospholipase A2” value [1] was “non-competitive inhibitor”. For the same compound, the “Mouse Toxicity and Analgesia (remark)” value (mice [10]) was “Active”, the “PMA - Mouse Ear Time Course of Action: time of optimum activity relative to PMA application” value [11] was < 5 min and the “PMA - Mouse Ear Time Course of Action: time of optimum activity relative to PMA application” value ([11]; listed as manoalide) was “five”. For the same compound, the “Electrically Stimulated Guinea Pig Ileum (remark)” value [12] was “Inactive”, the “antagonism of the morphine block” value [12] was “nor did it antagonize the morphine block” and the “block of electrically induced contractions” value [12] was “neither blocked electrically induced contractions”.

C[C@]12CCC(=O)C=C1CC[C@@H]1[C@@H]2[C@@H](O)C[C@@]2(C)[C@H]1CC[C@]2(O)C(=O)CO [Hydrocortisone, hydrocortisone, reference compound] was tested, and the “% Inhibition of Edema Alone” value [2] was 16.59 ± 7.00%, the “effect on ARA induced ear inflammation” value [6] was “Neither manoalide nor hydrocortisone affected the ARA induced inflammation” and the “EAR WEIGHT (MGS)” value ([9]; dose 50 μg/ear) was 9.7 ± 1.2 MGS. For the same compound, the “EAR WEIGHT (MGS)” value ([9]; dose 100 μg/ear) was 9.2 ± 0.4 MGS.

For CC(=CCCC(C=O)=CC=CC1=CC(=O)OC1O)CCC1=C(C)CCCC1(C)C (single isomer, unassigned) [dehydro-seco-manoalide], the “PMA Mouse Ear anti-inflammatory activity (remark)” value ([2]; mouse, in vivo) was “anti-inflammatoryactivity”, the “anti-inflammatory potency relative to comparators” value ([2]; mouse, in vivo) was “nearly equivalent in potency to that of manoalide” and the “effects on skeletal muscle” value (isolated diaphragm) was “no significant activity”. For the same compound, the “inhibition of cell division” value [3] was “no significant activity” and the “effects on cardiac muscle” value [4] was “no significant activity”.

For COc1ccc2c(c1)c(CC(=O)O)c(C)n2C(=O)c1ccc(Cl)cc1 [Indomethacin, indomethacin, reference compound], the “% Inhibition of Edema Alone” value [2] was 31.42 ± 12.72%, the “effect on ARA induced ear inflammation” value [6] was “effectively blocked” and the “EAR WEIGHT (MGS)” value ([9]; dose 50 μg/ear) was 16.6 ± 5.7 MGS. For the same compound, the “EAR WEIGHT (MGS)” value ([9]; dose 100 μg/ear) was 11.1 ± 1.2 MGS.
